# According to EPA's ToxRefDB 2:
# Legend:
# [1] = test system: dog; settings: Chronic toxicity, beagle, Oral, Gavage/Intubation, dose end: 12 month, group: systemic
# [2] = test system: rat; settings: Prenatal developmental toxicity study, sprague dawley, Oral, Gavage/Intubation, dose end: 15 GD
# [3] = test system: rabbit; settings: Prenatal developmental toxicity study, new zealand white, Oral, Gavage/Intubation, dose end: 18 GD
# [4] = test system: rat; settings: Combined chronic toxicity/carcinogenicity; sprague dawley; Oral; Feed; dose end: 104 week; group: systemic; systemic / pathology microscopic / lymph node / hemorrhage + systemic / pathology microscopic / lymph node / hemosiderosis + systemic / …
# [5] = test system: rat; settings: Subchronic oral toxicity in rodents, sprague dawley, Feed, dose end: 90 day, group: systemic, systemic / in life observation / body weight / body weight + systemic / in life observation / body weight / body weight gain + systemic / in…
# [6] = test system: rat; settings: Subchronic dermal toxicity, sprague dawley, Topical, dose end: 90 day, group: systemic
# [7] = test system: rat; settings: Multigenerational reproductive toxicity study, sprague dawley, Oral, Feed, dose end: 2 generation
# [8] = test system: mouse; settings: Carcinogenicity; cd1; Oral; Feed; dose end: 78 week; group: systemic; systemic / in life observation / body weight / body weight + systemic / in life observation / body weight / body weight gain
# [9] = test system: rat; settings: Peri- and post-natal toxicity study (Segment III); sprague dawley; Oral; Gavage/Intubation; dose end: 40 PND; group: parental; systemic / clinical chemistry / estradiol / estradiol + systemic / organ weight / adrenal gland / absolute
# [10] = test system: mouse; settings: Sub-acute repeat dose toxicity, b6c3f1, Oral, Feed, dose end: 14 day, group: systemic
# [11] = test system: rat; settings: Carcinogenicity; fischer; Oral; Feed; dose end: 103 week; group: systemic; systemic / in life observation / body weight / body weight
# [12] = test system: rat; settings: Sub-acute repeat dose toxicity, fischer, Oral, Feed, dose end: 14 day, group: systemic
# [13] = test system: rat; settings: Subchronic oral toxicity in rodents, fischer, Feed, dose end: 13 week, group: systemic, systemic / in life observation / body weight / body weight
# [14] = test system: mouse; settings: Carcinogenicity, b6c3f1, Oral, Feed, dose end: 103 week, group: systemic
# [15] = test system: rat; settings: Prenatal developmental toxicity study, sprague dawley, Oral, Gavage/Intubation, dose end: 15 GD; remark: listed apart in the source
# [16] = test system: rat; settings: Multigenerational reproductive toxicity study, sprague dawley, Oral, Feed, dose end: 2 generation; remark: listed apart in the source
# [17] = test system: dog; settings: Chronic toxicity; beagle; Oral; Feed; dose end: 1 year; group: systemic; systemic / pathology microscopic / kidney / fatty change + systemic / pathology microscopic / kidney / lipofuscin deposits + systemic / …
# [18] = test system: rat; settings: Subchronic oral toxicity in rodents, sprague dawley, Feed, dose end: 90 day, group: systemic
# [19] = test system: dog; settings: Subchronic oral toxicity in nonrodent, beagle, Feed, dose end: 90 day, group: systemic, systemic / hematology / [other] / [other] + systemic / hematology / anisocytosis / anisocytosis + systemic / hematology / leukocyte (wbc) …
# [20] = test system: rat; settings: Combined chronic toxicity/carcinogenicity; sprague dawley; Oral; Feed; dose end: 2 year; group: systemic; systemic / clinical chemistry / bilirubin / total bilirubin + systemic / hematology / lymphocyte / lymphocyte + systemic / hematology / …
# [21] = test system: rabbit; settings: Prenatal developmental toxicity study, new zealand white, Oral, Gavage/Intubation, dose end: 19 GD
# [22] = test system: mouse; settings: Subchronic oral toxicity in rodents, cd1, Feed, dose end: 3 month, group: systemic, systemic / clinical chemistry / albumin / albumin + systemic / clinical chemistry / bilirubin / total bilirubin + systemic / organ weight / …
# [23] = test system: mouse; settings: Carcinogenicity, cd1, Oral, Feed, dose end: 18 month, group: systemic
# [24] = test system: rat; settings: Combined chronic toxicity/carcinogenicity, sprague dawley, Oral, Feed, dose end: 104 week, group: systemic
# [25] = systemic / clinical chemistry / cholesterol / cholesterol + systemic / in life observation / clinical signs / emesis + systemic / in life …
# [26] = group: developmental, developmental / developmental malformation / bone / [other] + developmental / developmental malformation / bone / incomplete ossification + …
# [27] = group: maternal, systemic / in life observation / clinical signs / abnormal respiratory sounds
# [28] = group: maternal, systemic / in life observation / clinical signs / abnormal respiratory sounds + systemic / in life observation / body weight / body weight …
# [29] = group: developmental, systemic / in life observation / body weight / fetal weight
# [30] = group: maternal, systemic / in life observation / body weight / body weight gain + systemic / in life observation / clinical signs / abnormal respiratory …
# [31] = group: maternal, systemic / in life observation / clinical signs / defecation (diarrhea) + systemic / in life observation / clinical signs / oral discharge
# [32] = systemic / pathology microscopic / skin / acanthosis
# [33] = group: offspring, systemic / in life observation / body weight / offspring (pup) weight + systemic / in life observation / body weight / offspring (pup) …
# [34] = group: parental, systemic / in life observation / body weight / body weight + systemic / in life observation / body weight / body weight gain + systemic / in…
# [35] = systemic / in life observation / body weight / body weight + systemic / in life observation / body weight / body weight gain
# [36] = systemic / in life observation / body weight / body weight + systemic / in life observation / body weight / body weight gain + systemic / in…
# [37] = systemic / in life observation / body weight / body weight gain
# [38] = systemic / in life observation / body weight / body weight gain + systemic / in life observation / mortality / mortality + systemic / in …
# [39] = systemic / pathology microscopic / liver / hepatocellular adenoma + systemic / pathology microscopic / liver / hepatocellular carcinoma
# [40] = group: developmental, developmental / developmental malformation / bone / full supernumerary + developmental / developmental malformation / bone / short …
# [41] = group: maternal, systemic / in life observation / body weight / body weight gain
# [42] = group: offspring, systemic / in life observation / body weight / offspring (pup) weight
# [43] = group: parental, systemic / in life observation / body weight / body weight + systemic / in life observation / body weight / body weight gain
# [44] = group: reproductive, reproductive / reproductive performance / fertility / fertility
# [45] = systemic / in life observation / body weight / body weight + systemic / in life observation / body weight / body weight gain + systemic / …
# [46] = group: developmental, developmental / developmental malformation / general / runts
# [47] = group: developmental, developmental / developmental malformation / general / runts + developmental / developmental malformation / bone / detached + developmental…
# [48] = group: maternal, systemic / in life observation / body weight / body weight gain + systemic / in life observation / food consumption / food consumption + …
# [49] = systemic / pathology microscopic / kidney / adenoma + systemic / organ weight / kidney / absolute + systemic / organ weight / kidney / …
structure (smiles),measurement,setting,value
CCCCCCCCCC[N+](C)(C)CCCCCCCCCC.[Cl-] [Didecyldimethylammonium chloride],LOAEL,[1]; [25],20 mg/kg/day
same,NEL,[1]; [25],3 mg/kg/day
same,NOAEL,[1]; [25],10 mg/kg/day
same,LEL,[1]; systemic / in life observation / clinical signs / emesis + systemic / in life observation / clinical signs / mucoid stools + systemic / in …,10 mg/kg/day
same,LEL,[2]; [26],20 mg/kg/day
same,LOAEL,[2]; [26],20 mg/kg/day
same,NEL,[2]; [26],10 mg/kg/day
same,NOAEL,[2]; [26],10 mg/kg/day
same,LEL,[2]; [27],10 mg/kg/day
same,LOAEL,[2]; [27],10 mg/kg/day
same,NEL,[2]; [28],1 mg/kg/day
same,NOAEL,[2]; [28],1 mg/kg/day
same,LEL,[3]; [29],10 mg/kg/day
same,LOAEL,[3]; [29],10 mg/kg/day
same,NEL,[3]; [29],3 mg/kg/day
same,NOAEL,[3]; [29],3 mg/kg/day
same,LOAEL,[3]; [30],3 mg/kg/day
same,NOAEL,[3]; [30],1 mg/kg/day
same,LEL,[3]; [31],1 mg/kg/day
same,NEL,[3]; [31],< 1 mg/kg/day
same,LEL,[4],64 mg/kg/day
same,LOAEL,[4],64 mg/kg/day
same,NEL,[4],32 mg/kg/day
same,NOAEL,[4],32 mg/kg/day
same,LEL,[5],175 mg/kg/day
same,LOAEL,[5],175 mg/kg/day
same,NEL,[5],60.7 mg/kg/day
same,NOAEL,[5],60.7 mg/kg/day
same,LEL,[6]; [32],2 mg/kg/day
same,NEL,[6]; [32],< 2 mg/kg/day
same,LOAEL,[6]; systemic / pathology microscopic / skin / acanthosis + systemic / pathology microscopic / skin / inflammation,6 mg/kg/day
same,NOAEL,[6]; systemic / pathology microscopic / skin / acanthosis + systemic / pathology microscopic / skin / inflammation + systemic / in life …,2 mg/kg/day
same,LEL,[7]; [33],101 mg/kg/day
same,LOAEL,[7]; [33],101 mg/kg/day
same,NEL,[7]; [33],48.2 mg/kg/day
same,NOAEL,[7]; [33],48.2 mg/kg/day
same,LEL,[7]; [34],101 mg/kg/day
same,LOAEL,[7]; [34],101 mg/kg/day
same,NEL,[7]; [34],48.2 mg/kg/day
same,NOAEL,[7]; [34],48.2 mg/kg/day
same,LEL,[8],156 mg/kg/day
same,LOAEL,[8],156 mg/kg/day
same,NEL,[8],76.3 mg/kg/day
same,NOAEL,[8],76.3 mg/kg/day
CCOC(=O)c1ccc(O)cc1 [Ethylparaben],LEL,[9],1000 mg/kg/day
same,LOAEL,[9],> 1000 mg/kg/day
same,NEL,[9],250 mg/kg/day
same,NOAEL,[9],≥ 1000 mg/kg/day
C=CCc1ccc(O)c(OC)c1 [Eugenol],LEL,[10]; [35],1880 mg/kg/day
same,LOAEL,[10]; [36],> 15000 mg/kg/day
same,NEL,[10]; [36],900 mg/kg/day
same,NOAEL,[10]; [36],≥ 15000 mg/kg/day
same,LEL,[11],625 mg/kg/day
same,LOAEL,[11],625 mg/kg/day
same,NEL,[11],300 mg/kg/day
same,NOAEL,[11],300 mg/kg/day
same,LEL,[12]; [37],1250 mg/kg/day
same,NEL,[12]; systemic / in life observation / body weight / body weight gain + systemic / in life observation / mortality / mortality,625 mg/kg/day
same,LOAEL,[12]; [38],> 5000 mg/kg/day
same,NOAEL,[12]; [38],≥ 5000 mg/kg/day
same,LEL,[13],300 mg/kg/day
same,LOAEL,[13],625 mg/kg/day
same,NEL,[13],150 mg/kg/day
same,NOAEL,[13],300 mg/kg/day
same,LOAEL,[14]; systemic / in life observation / body weight / body weight,900 mg/kg/day
same,NOAEL,[14]; systemic / in life observation / body weight / body weight + systemic / pathology microscopic / liver / adenoma/carcinoma combined,450 mg/kg/day
same,LEL,[14]; [39],450 mg/kg/day
same,NEL,[14]; [39],< 450 mg/kg/day
COc1nc(C)nc(NC(=O)NS(=O)(=O)c2ccccc2CCC(F)(F)F)n1 [Prosulfuron],LEL,[15]; [40],400 mg/kg/day
same,LOAEL,[15]; [40],400 mg/kg/day
same,NEL,[15]; [40],200 mg/kg/day
same,NOAEL,[15]; [40],200 mg/kg/day
same,LEL,[15]; [41],400 mg/kg/day
same,LOAEL,[15]; [41],400 mg/kg/day
same,NEL,[15]; [41],200 mg/kg/day
same,NOAEL,[15]; [41],200 mg/kg/day
same,LEL,[16]; [42],136 mg/kg/day
same,LOAEL,[16]; [42],136 mg/kg/day
same,NEL,[16]; [42],13.3 mg/kg/day
same,NOAEL,[16]; [42],13.3 mg/kg/day
same,LEL,[16]; [43],136 mg/kg/day
same,LOAEL,[16]; [43],136 mg/kg/day
same,NEL,[16]; [43],13.3 mg/kg/day
same,NOAEL,[16]; [43],13.3 mg/kg/day
same,LEL,[16]; [44],278 mg/kg/day
same,LOAEL,[16]; [44],> 278 mg/kg/day
same,NEL,[16]; [44],136 mg/kg/day
same,NOAEL,[16]; [44],≥ 278 mg/kg/day
same,LEL,[17],18.6 mg/kg/day
same,LOAEL,[17],18.6 mg/kg/day
same,NEL,[17],1.95 mg/kg/day
same,NOAEL,[17],1.95 mg/kg/day
same,LEL,[18]; [35],31 mg/kg/day
same,LOAEL,[18]; [35],31 mg/kg/day
same,NEL,[18]; [45],3.1 mg/kg/day
same,NOAEL,[18]; [45],3.1 mg/kg/day
same,LEL,[19],54 mg/kg/day
same,LOAEL,[19],54 mg/kg/day
same,NEL,[19],6.5 mg/kg/day
same,NOAEL,[19],6.5 mg/kg/day
same,LEL,[20],0.4 mg/kg/day
same,LOAEL,[20],79.9 mg/kg/day
same,NEL,[20],< 0.4 mg/kg/day
same,NOAEL,[20],7.9 mg/kg/day
same,NEL,[21]; [46],100 mg/kg/day
same,NOAEL,[21]; [46],100 mg/kg/day
same,LEL,[21]; [47],200 mg/kg/day
same,LOAEL,[21]; [47],200 mg/kg/day
same,LOAEL,"[21]; group: maternal, systemic / in life observation / body weight / body weight gain + systemic / in life observation / food consumption / food consumption",100 mg/kg/day
same,LEL,[21]; [48],100 mg/kg/day
same,NEL,[21]; [48],20 mg/kg/day
same,NOAEL,[21]; [48],20 mg/kg/day
same,LEL,[22],69.3 mg/kg/day
same,LOAEL,[22],69.3 mg/kg/day
same,NEL,[22],2.01 mg/kg/day
same,NOAEL,[22],2.01 mg/kg/day
same,LOAEL,[23]; [37],508 mg/kg/day
same,NOAEL,[23]; systemic / in life observation / body weight / body weight gain + systemic / hematology / mean corpuscular hemoglobin concentration (mchc…,100 mg/kg/day
same,LEL,[23]; systemic / pathology microscopic / liver / hypertrophy,81.4 mg/kg/day
same,NEL,[23]; systemic / pathology microscopic / liver / hypertrophy + systemic / hematology / hematocrit (hct) / hematocrit (hct) + systemic / in life …,1.71 mg/kg/day
O=P(OC(CCl)CCl)(OC(CCl)CCl)OC(CCl)CCl [TDCPP],NEL,[24]; systemic / pathology microscopic / adrenal gland / adenoma + systemic / pathology microscopic / kidney / adenoma + systemic / pathology …,5 mg/kg/day
same,LEL,[24]; [49],20 mg/kg/day
same,LOAEL,[24]; [49],> 80 mg/kg/day
same,NOAEL,[24]; [49],≥ 80 mg/kg/day
